Data published in US20110183969A1, “ANTIFUNGAL COMBINATION THERAPY” (priority 2008, published 2011).
Converted amounts (≈) assume the structure as drawn.

Key:
Type in all cases: cell-based
Aspergillus terreus AT4 = experiment: MIC (YAG medium); details: Aspergillus terreus; YAG medium; MIC banded into grades; AT4; read-out: MIC A. terreus (grade)
Summary of the method: (§1)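 OD 485 nm read-out after 24 h, 35° C; MIC = lowest concentration inhibiting growth >70% vs drug-free control, in mg/L. Medium YAG (1% glucose, 1% NH4Cl, 0.5% yeast extract); inoculum 1-2×10^4 cfu/mL; compound range 50-0.05 mg/L, repeated at 0.5-0.0005 mg/L […].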

[1] = test system: Aspergillus fumigatus AF210; experiment: MIC (YAG medium); details: Aspergillus fumigatus; YAG medium; MIC banded into grades; AF210; read-out: MIC A. fumigatus 210 (grade)
Summary of the method: as §1

Aspergillus niger = experiment: MIC (YAG medium); details: Aspergillus niger; YAG medium; MIC banded into grades; read-out: MIC A. niger (grade)
Summary of the method: as §1

Aspergillus flavus = experiment: MIC (YAG medium); details: Aspergillus flavus; YAG medium; MIC banded into grades; read-out: MIC A. flavus (grade)
Summary of the method: as §1

Aspergillus terreus AT49 = experiment: MIC (YAG medium); details: Aspergillus terreus; YAG medium; MIC banded into grades; AT49; read-out: MIC A. terreus 49 (grade)
Summary of the method: as §1

[2] = test system: Aspergillus fumigatus AF293; experiment: MIC (YAG medium); details: Aspergillus fumigatus; YAG medium; MIC banded into grades; AF293; read-out: MIC A. fumigatus (grade)
Summary of the method: as §1

Fusarium solani FS2 = experiment: 24 hr Fusarium solani MIC (RPMI medium, FS2); details: banded into grades, read-out: MIC
Protocol: Between 1 and 5 mgs of compound were accurately weighed out into a sterile Eppendorf tube. The compound was dissolved in DMSO to give a solution containing 5 mg/mL. Tubes were stored at −20° C. until required.
On the day of testing thawed solutions were vortex mixed to ensure homogeneity. 30 μL of solution was removed and added to 570 μL of sterile water in a separate sterile Eppendorf The thoroughly mixed solution was used to prepare a series of doubling dilutions in water, in a deep well plate. […] replicate plates were prepared using a Minitrak by aspirating 20 μL from each well into eleven clear polystyrene 96 well plates.
Spores of Aspergillus spp. (Aspergillus fumigatus [two strains], Aspergillus terreus [two strains], Aspergillus niger and Aspergillus flavus) were harvested from cultures grown on Sabarauds agar for 5 days, and resuspended in PBS/Tween 80 to approx 1×10^7 cfu/mL. Other filamentous fungi (Absidia corymbifera, Fusarium solani, Rhizomucor, Scedosporium spp., Trichophyton spp.), were grown on Sabarauds agar for 2-10 days and spores/hyphae resuspended in PBS/Tween to give approx 1×10^7 cfu/mL. Candida species (Candida albicans, Candida glabrata, Candida krusei, Candida parapsilosis and Candida tropicalis) were grown on Sabarauds agar, cells were harvested from the agar using a sterile loop and resuspended in PBS/Tween 80 to approx 1×10^6 cfu/mL. Each organism suspension was diluted in RPMI medium, containing 2% glucose and 0.135 M MOPS buffer (pH 7.0) to 0.5−2×10^4 cfu/mL for Aspergillus spp. and other filamentous fungi and 0.5-2×10^3 cfu/mL for yeast. 80 μL of an organism suspension was added to each well of the plate containing drug dilutions.
This produced MIC plates with a drug range 50-0.05 mg/L and organism inocula of 1-2×10^4 cfu/mL for Aspergillus spp. and other filamentous fungi and 1-2×10^3 cfu/mL for yeasts. All plates were incubated for 24-48 hrs at 35° C. Growth was assessed by monitoring the optical density at 485 nm for each well. The MIC of a compound is the lowest drug concentration that inhibits growth of an organism by >80% compared with a drug free control. MICs are recorded as mg/L. Other growth media can be used for susceptibility testing, and the activity of the described compounds can also be assessed in a medium comprising 1% glucose, 1% ammonium chloride and 0.5% yeast extract (YAG medium). To perform MIC tests in this medium, dilutions of compounds are prepared in microtitre plates as described above. Fungal strains to be tested are grown and harvested in an identical manner to that described above, each organism suspension is then diluted in YAG medium to 0.5-2×10^4 cfu/mL for Aspergillus spp. and other filamentous fungi and 0.5-2×10^3 cfu/mL for yeast. 80 μL of an organism suspension was added to each well of the plate containing drug dilutions. This produced MIC plates with a drug range 50-0.05 mg/L and organism inocula of 1-2×10^4 cfu/mL for Aspergillus spp. and other filamentous fungi and 1-2×10^3 cfu/mL for yeasts. All plates were incubated for 24 hrs at 35° C. Growth was assessed by monitoring the optical density at 485 nm for each well. The MIC of a compound is the lowest drug concentration that inhibits growth of an organism by >70% compared with a drug free control. MICs are recorded as mg/L. In cases where the MIC of an organism is […] mg/L the MIC is repeated using a concentration range of 0.5-0.0005 mg/L. MIC tests in YAG medium have more clear-cut endpoints and have slightly lower MICs than those performed in RPMI medium.
24 hr Fusarium solani MIC Results (RPMI Medium, FS2): […]

[3] = test system: Aspergillus fumigatus AF210; experiment: Checkerboard titration (FIC) of an indolizine derivative with a second antifungal agent, RPMI medium; details: compound of Example 21 in combination with caspofungin, 48 hrs
Protocol: To determine the combined antifungal effect of indolizine derivatives of formula (I) and the second antifungal agent a checkerboard titration can be carried out. These are relatively simple tests to determine the combined effects of two compound. In the checkerboard titration doubling dilutions of compound A (e.g. an indolizine derivative of formula (I)) are prepared in every row across a microtitre plate and doubling dilutions of compound B (e.g. a second antifungal agent as described above) are prepared in every column down a microtitre plate. The activity of the two compounds in combination can be compared with the activity of each compound alone. In these experiments a narrow range of dilutions was tested for each compound around the MIC.
A stock solution of the compound of Example […] was prepared in DMSO. A stock solution of a second antifungal agent, in this case caspofungin, was 2 mg/ml.
The stock solution of the compound of Example 21 was diluted 1:2000 in water to 2.5 μg/ml. From this stock, aqueous solutions containing the following concentrations of the compound of Example 21 were prepared 0.9, 0.8, 0.7, 0.6, 0.5, 0.4, 0.3, 0.2, 0.1, 0.05, 0.025, 0.0125 μg/ml. […]
To determine the combined effect of the compounds the Fractional inhibitory concentration FIC was determined, where FIC is defined as: […]

| SMILES | MIC (Aspergillus terreus AT4) [µg/mL] | MIC [1] [µg/mL] | MIC (Aspergillus niger) [µg/mL] | MIC (Aspergillus flavus) [µg/mL] | MIC (Aspergillus terreus AT49) [µg/mL] | MIC [2] [µg/mL] | MIC (Fusarium solani FS2) [µg/mL] | FIC (fractional inhibitory concentration) [3] |
| --- | --- | --- | --- | --- | --- | --- | --- | --- |
| Cc1cc(C)nc(N2CCN(c3ccc(NC(=O)C(=O)c4c(-c5ccccc5)cc5ccccn45)cc3)CC2)c1 [Example 21, N-{4-[4-(4,6-Dimethyl-pyridin-2-yl)-piperazin-1-yl]-phenyl}-2-oxo-2-(2-phenyl-indolizin-3-yl)-acetamide] | < 1 | < 1 | < 1 | < 1 | < 1 | < 1 | < 1 | 0.66 |
| CC1CN(C2CCN(c3ccc(NC(=O)C(=O)c4c(-c5ccccc5)cc5ccccn45)cc3)CC2)CC(C)O1 (stereo not drawn) [Example 24, N-{4-[4-(2,6-Dimethyl-morpholin-4-yl)-piperidin-1-yl]-phenyl}-2-oxo-2-(2-phenyl-indolizin-3-yl)-acetamide] | < 1 | < 1 | < 1 | < 1 | < 1 | < 1 | 1 to 10 (≈ 1.86 to 18.6 µM) | – |
